According to publication PMC4509505 (Journal of functional foods, 2015):
Where two headings read alike, the source gives them in different places.

Tests used:
[1] = biological target: T1, catechol-O-methyl transferase (COMT) (Mus musculus, UniProt O88587); test: Fraction of unmethylated total EGCG; format: in vivo, male CF-1 mice
T1 sequence (O88587 1-265): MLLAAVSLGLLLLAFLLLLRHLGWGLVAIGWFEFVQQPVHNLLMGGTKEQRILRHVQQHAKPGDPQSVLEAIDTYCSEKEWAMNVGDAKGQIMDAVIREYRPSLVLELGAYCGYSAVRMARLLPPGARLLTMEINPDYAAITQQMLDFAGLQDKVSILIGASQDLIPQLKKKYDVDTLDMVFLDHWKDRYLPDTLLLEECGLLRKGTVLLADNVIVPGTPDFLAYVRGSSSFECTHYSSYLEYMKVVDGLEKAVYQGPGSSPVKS

[2] = format: in vivo, male CF-1 mice; conditions: for AUC0→720min / Cmax / Tmax: EGCG 100 mg/kg i.g.
[3] = test system: murine lung cancer cells; conditions: murine lung cancer cells in vitro; ref Forester & Lambert, 2014; cited from earlier work
[4] = test system: human lung cancer cells; conditions: human lung cancer cells in vitro; ref Forester & Lambert, 2014; cited from earlier work
[5] = test system: COMT; conditions: ref Wang, Heber, & Henning, 2012; cited from earlier work

## O=C(O[C@@H]1Cc2c(O)cc(O)cc2O[C@@H]1c1cc(O)c(O)c(O)c1)c1cc(O)c(O)c(O)c1 [EGCG, (−)-epigallocatechin-3-gallate]
[1]; plasma, EGCG 100 mg/kg i.g. with co-administration of TOL 30 mg/kg i.g.
  unmethylated EGCG as fraction of the total: 87.9%
[1]; plasma, mice treated with EGCG 100 mg/kg i.g. only
  unmethylated EGCG as fraction of the total: 63.4%
[1]; urine, EGCG 100 mg/kg i.g. plus TOL 30 mg/kg i.g.
  unmethylated EGCG as fraction of the total: 81.8%
[1]; urine, mice treated with EGCG 100 mg/kg i.g. only
  unmethylated EGCG as fraction of the total: 29.2%
[2]; Cecum, TOL (+) 30 mg/kg i.g.
  AUC0→720min: 39152.8 ± 8338.2 (nmol/g)•min
  Cmax: 97.7 ± 19.4 nmol/g
  Tmax: 7.555 ± 2.118 h
[2]; Cecum, TOL (−)
  AUC0→720min: 41580.2 ± 10560.6 (nmol/g)•min
  Cmax: 117.7 ± 31.7 nmol/g
  Tmax: 5.013 ± 1.66 h
[2]; Colon, TOL (+) 30 mg/kg i.g.
  AUC0→720min: 18631.3 ± 2844.0 (nmol/g)•min
  Cmax: 37.6 ± 5.8 nmol/g
  Tmax: 4 ± 1 h
[2]; Colon, TOL (−)
  AUC0→720min: 26301.3 ± 8881.3 (nmol/g)•min
  Cmax: 63.8 ± 9.6 nmol/g
  Tmax: 7 ± 2.645 h
[2]; Kidney, TOL (+) 30 mg/kg i.g.
  AUC0→720min: 461.7 ± 358.5 (nmol/g)•min
  Cmax: 2.0 ± 1.7 nmol/g
  Tmax: 4.445 ± 3.783 h
[2]; Kidney, TOL (−)
  AUC0→720min: 95.7 ± 5.6 (nmol/g)•min
  Cmax: 0.4 ± 0.1 nmol/g
  Tmax: 6.028 ± 3.44 h
[2]; Liver, TOL (+) 30 mg/kg i.g.
  AUC0→720min: 1324.8 ± 390.5 (nmol/g)•min
  Cmax: 2.7 ± 0.7 nmol/g
  Tmax: 3.528 ± 1.792 h
[2]; Liver, TOL (−)
  AUC0→720min: 871.5 ± 401.9 (nmol/g)•min
  Cmax: 2.2 ± 0.9 nmol/g
  Tmax: 3.333 ± 0.918 h
[2]; Lung, TOL (+) 30 mg/kg i.g.
  AUC0→720min: 1002.1 ± 682.1 (nmol/g)•min
  Cmax: 23.3 ± 20.8 nmol/g
  Tmax: 2.792 ± 1.893 h
[2]; Lung, TOL (−)
  AUC0→720min: 203.3 ± 156.4 (nmol/g)•min
  Cmax: 1.4 ± 1.2 nmol/g
  Tmax: 2.355 ± 1.38 h
[2]; Plasma, TOL (+) 30 mg/kg i.g.
  AUC0→720min: 154887.7 ± 39082.1 nM·min
  Cmax: 1530 ± 345 nM
  Tmax: 0.208 ± 0.0567 h
[2]; Plasma, TOL (−)
  AUC0→720min: 245330.8 ± 74700.1 nM·min
  Cmax: 1190 ± 315 nM
  Tmax: 0.278 ± 0.15 h
[2]; Urine (pooled), TOL (+) 30 mg/kg i.g.
  Tmax: 0.333 h
[2]; Urine (pooled), TOL (−)
  Tmax: 0.083 h

## Cc1ccc(C(=O)c2cc(O)c(O)c([N+](=O)[O-])c2)cc1 [TOL, tolcapone, reference compound]
[3]
  growth inhibition in combination with EGCG: synergistically inhibited
[2]; cecum or colon, TOL co-treatment vs EGCG only
  effect on Cmax of unmethylated, unconjugated EGCG: did not affect
[2]; liver, kidney, lung and urine, TOL co-administration vs EGCG only
  effect on AUC0→720min of unmethylated, unconjugated EGCG: tended to increase
[2]; plasma, cecum and colon, TOL co-treatment vs EGCG only
  effect on AUC0→720min of unmethylated, unconjugated EGCG: nor did it affect
[2]; plasma, liver, kidney, lung and urine, TOL co-administration vs EGCG only
  effect on Cmax of unmethylated, unconjugated EGCG: tended to increase
[2]; plasma, co-treatment TOL 30 mg/kg + EGCG 100 mg/kg i.g. vs EGCG only (Fig. 2)
  effect on levels of unmetabolised (unmethylated, unconjugated) EGCG: did not significantly affect
[4]
  growth inhibition in combination with EGCG: synergistically inhibited

## O=c1c(O)c(-c2ccc(O)c(O)c2)oc2cc(O)cc(O)c12 [quercetin]
[5]
  increase of the levels of EGCG found in the lung and kidney: greater than 2 fold

## CCN(CC)C(=O)/C(C#N)=C/c1cc(O)c(O)c([N+](=O)[O-])c1 [entacapone]
[3]
  growth inhibition in combination with EGCG: synergistically inhibited
[4]
  growth inhibition in combination with EGCG: synergistically inhibited
